Laboratory results from the NIST ThermoML archive (doi:10.1016/j.jct.2013.10.025).

Test: xn = mol fraction of the nth substance listed
Details: 101 kPa, Liquid; for viscosity: Capillary tube (Ostwald / Ubbelohde) method; for speed of sound: Sing-around technique in a fixed-path interferometer; for mass density: Vibrating tube method

CCCCCCCCCCO [decan-1-ol] + C1CCOC1
Details | mass density [kg/m3] | speed of sound [m/s] | viscosity [mPa·s]
298.15 K, x2 = 0.0503 | 827.6 | 1372.7 | 9.806
298.15 K, x2 = 0.1046 | 828.949 | 1368.8 | 8.47
298.15 K, x2 = 0.157 | 830.327 | 1365.1 | 7.201
298.15 K, x2 = 0.2022 | 831.593 | 1361.8 | 6.345
298.15 K, x2 = 0.253 | 833.093 | 1357.5 | 5.428
298.15 K, x2 = 0.3057 | 834.766 | 1352.6 | 4.609
298.15 K, x2 = 0.4094 | 838.49 | 1343.7 | 3.343
298.15 K, x2 = 0.5018 | 842.347 | 1334 | 2.503
298.15 K, x2 = 0.6038 | 847.354 | 1323.4 | 1.842
298.15 K, x2 = 0.7003 | 853.111 | 1312.4 | 1.366
298.15 K, x2 = 0.8004 | 860.53 | 1299.3 | 0.98
298.15 K, x2 = 0.9043 | 870.265 | 1286.4 | 0.691
303.15 K, x2 = 0.0503 | 824.137 | 1355.9 | 8.074
303.15 K, x2 = 0.1046 | 825.438 | 1351.7 | 7.037
303.15 K, x2 = 0.157 | 826.766 | 1348.3 | 6.17
303.15 K, x2 = 0.2022 | 827.998 | 1344.4 | 5.262
303.15 K, x2 = 0.253 | 829.453 | 1339.9 | 4.527
303.15 K, x2 = 0.3057 | 831.076 | 1335 | 3.958
303.15 K, x2 = 0.4094 | 834.656 | 1325.7 | 2.908
303.15 K, x2 = 0.5018 | 838.365 | 1315.6 | 2.095
303.15 K, x2 = 0.6038 | 843.203 | 1304.3 | 1.635
303.15 K, x2 = 0.7003 | 848.748 | 1292.6 | 1.224
303.15 K, x2 = 0.8004 | 855.869 | 1278.9 | 0.907
303.15 K, x2 = 0.9043 | 865.235 | 1264.9 | 0.649
308.15 K, x2 = 0.0503 | 820.661 | 1339.1 | 6.379
308.15 K, x2 = 0.1046 | 821.913 | 1335 | 5.67
308.15 K, x2 = 0.157 | 823.195 | 1331.1 | 4.969
308.15 K, x2 = 0.2022 | 824.389 | 1327 | 4.236
308.15 K, x2 = 0.253 | 825.796 | 1322.2 | 3.663
308.15 K, x2 = 0.3057 | 827.357 | 1317.2 | 3.249
308.15 K, x2 = 0.4094 | 830.825 | 1307.1 | 2.385
308.15 K, x2 = 0.5018 | 834.401 | 1296.8 | 1.738
308.15 K, x2 = 0.6038 | 839.036 | 1284.4 | 1.408
308.15 K, x2 = 0.7003 | 844.365 | 1271.8 | 1.04
308.15 K, x2 = 0.8004 | 851.199 | 1257.6 | 0.807
308.15 K, x2 = 0.9043 | 860.184 | 1241.5 | 0.58
313.15 K, x2 = 0.0503 | 817.16 | 1322.7 | –
313.15 K, x2 = 0.1046 | 818.367 | 1318.3 | –
313.15 K, x2 = 0.157 | 819.603 | 1314.4 | –
313.15 K, x2 = 0.2022 | 820.753 | 1310.1 | –
313.15 K, x2 = 0.253 | 822.116 | 1305.7 | –
313.15 K, x2 = 0.3057 | 823.62 | 1300.1 | –
313.15 K, x2 = 0.4094 | 826.953 | 1289.6 | –
313.15 K, x2 = 0.5018 | 830.393 | 1278.9 | –
313.15 K, x2 = 0.6038 | 834.849 | 1266.3 | –
313.15 K, x2 = 0.7003 | 839.96 | 1253.2 | –
313.15 K, x2 = 0.8004 | 846.506 | 1238.4 | –
313.15 K, x2 = 0.9043 | 855.097 | 1221.6 | –
